According to patent US20090123904A1, “COMPOSITION FOR PRESERVING CELLS, TISSUES, OR ORGANS, PRODUCTION PROCESS AND USES” (BIOCYDEX, SOCIETE PAR ACTIONS SIMPLIFIEE, priority 2007, published 2009):

Experiment: Dissolution of the powder in ViaSpan preservation medium
Format: physicochemical
Settings: in 10 ml of ViaSpan preservation medium, 100×-concentrated solution
Protocol: The production process consists in taking up 15.77 mg of propane diamine-β-CD in powder form in 10 ml of the preservation medium ViaSpan® to obtain a 100×-concentrated solution.
The preparation of the close mixture is carried out according to the following operating procedure: • 4.57 mg of resveratrol is added to 9 ml of a solution that contains 2495.3 mg of propane diamine-β-CD in water, • The pH is adjusted to 7.4, • The whole is stirred for 5 to 24 hours at 24° C. and in the absence of light, • The solution is next filtered in a Millipore hydrophilic PVDF filter and then freeze-dried to provide a powder that contains a close mixture whose resveratrol/propane diamine-β-CD molar ratio is 1/111, • The freeze-dried close mixture is preserved in amber bottles at 4° C., • 15.8 mg of the close mixture is then taken up in 10 ml of the ViaSpan® preservation medium to obtain a 100×-concentrated solution.

For `NCCCNCC1OC2OC3C(CO)OC(OC4C(CO)OC(OC5C(CO)OC(OC6C(CO)OC(OC7C(CO)OC(OC8C(CO)OC(OC1C(O)C2O)C(O)C8O)C(O)C7O)C(O)C6O)C(O)C5O)C(O)C4O)C(O)C3O` (stereo not drawn) [propane diamine-β-CD, 6A-(3-aminopropylamino)-6A-deoxy-cyclomatoheptaose], the “Dissolution of the powder” value was “dissolves instantaneously”.
